Source: ChEMBL document CHEMBL4020788, “Synthesis, SAR and molecular docking studies of benzo[d]thiazole-hydrazones as potential antibacterial and antifungal agents” (2017)
In brackets after ≈: the same amount, converted by molar mass.

Tests used:
Assay type in all cases: functional
Staphylococcus aureus [1] = test: Antibacterial activity against Staphylococcus aureus at 25 ug/ml after 24 hrs by agar well diffusion method; details: read-out: DIZ
Staphylococcus aureus [2] = test: Antibacterial activity against Staphylococcus aureus at 50 ug/ml after 24 hrs by agar well diffusion method; details: read-out: DIZ
Staphylococcus aureus [3] = test: Antibacterial activity against Staphylococcus aureus at 75 ug/ml after 24 hrs by agar well diffusion method; details: read-out: DIZ
Staphylococcus aureus [4] = test: Antibacterial activity against Staphylococcus aureus at 100 ug/ml after 24 hrs by agar well diffusion method; details: read-out: DIZ
Bacillus subtilis [5] = test: Antibacterial activity against Bacillus subtilis at 25 ug/ml after 24 hrs by agar well diffusion method; details: read-out: DIZ
Bacillus subtilis [6] = test: Antibacterial activity against Bacillus subtilis at 50 ug/ml after 24 hrs by agar well diffusion method; details: read-out: DIZ
Bacillus subtilis [7] = test: Antibacterial activity against Bacillus subtilis at 75 ug/ml after 24 hrs by agar well diffusion method; details: read-out: DIZ
Bacillus subtilis [8] = test: Antibacterial activity against Bacillus subtilis at 100 ug/ml after 24 hrs by agar well diffusion method; details: read-out: DIZ
Escherichia coli [9] = test: Antibacterial activity against Escherichia coli at 25 ug/ml after 24 hrs by agar well diffusion method; details: read-out: DIZ
Escherichia coli [10] = test: Antibacterial activity against Escherichia coli at 50 ug/ml after 24 hrs by agar well diffusion method; details: read-out: DIZ
Escherichia coli [11] = test: Antibacterial activity against Escherichia coli at 75 ug/ml after 24 hrs by agar well diffusion method; details: read-out: DIZ
Escherichia coli [12] = test: Antibacterial activity against Escherichia coli at 100 ug/ml after 24 hrs by agar well diffusion method; details: read-out: DIZ
Klebsiella pneumoniae [13] = test: Antibacterial activity against Klebsiella pneumoniae at 25 ug/ml after 24 hrs by agar well diffusion method; details: read-out: DIZ
Klebsiella pneumoniae [14] = test: Antibacterial activity against Klebsiella pneumoniae at 50 ug/ml after 24 hrs by agar well diffusion method; details: read-out: DIZ
Klebsiella pneumoniae [15] = test: Antibacterial activity against Klebsiella pneumoniae at 75 ug/ml after 24 hrs by agar well diffusion method; details: read-out: DIZ
Klebsiella pneumoniae [16] = test: Antibacterial activity against Klebsiella pneumoniae at 100 ug/ml after 24 hrs by agar well diffusion method; details: read-out: DIZ
Staphylococcus aureus [17] = test: Antibacterial activity against methicillin resistant Staphylococcus aureus MRSA090 at 25 ug/ml after 24 hrs by agar well diffusion method; details: MRSA090, 24 h, read-out: DIZ
Staphylococcus aureus [18] = test: Antibacterial activity against methicillin resistant Staphylococcus aureus MRSA090 at 50 ug/ml after 24 hrs by agar well diffusion method; details: MRSA090, 24 h, read-out: DIZ
Staphylococcus aureus [19] = test: Antibacterial activity against methicillin resistant Staphylococcus aureus MRSA090 at 75 ug/ml after 24 hrs by agar well diffusion method; details: MRSA090, 24 h, read-out: DIZ
Staphylococcus aureus [20] = test: Antibacterial activity against methicillin resistant Staphylococcus aureus MRSA090 at 100 ug/ml after 24 hrs by agar well diffusion method; details: MRSA090, 24 h, read-out: DIZ
Aspergillus niger [21] = test: Antifungal activity against Aspergillus niger at 25 ug/ml after 48 hrs by agar well diffusion method; details: read-out: DIZ
Aspergillus niger [22] = test: Antifungal activity against Aspergillus niger at 50 ug/ml after 48 hrs by agar well diffusion method; details: read-out: DIZ
Aspergillus niger [23] = test: Antifungal activity against Aspergillus niger at 75 ug/ml after 48 hrs by agar well diffusion method; details: read-out: DIZ
Aspergillus niger [24] = test: Antifungal activity against Aspergillus niger at 100 ug/ml after 48 hrs by agar well diffusion method; details: read-out: DIZ
Fusarium verticillioides [25] = test: Antifungal activity against Fusarium moniliforme at 25 ug/ml after 48 hrs by agar well diffusion method; details: read-out: DIZ
Fusarium verticillioides [26] = test: Antifungal activity against Fusarium moniliforme at 50 ug/ml after 48 hrs by agar well diffusion method; details: read-out: DIZ
Fusarium verticillioides [27] = test: Antifungal activity against Fusarium moniliforme at 75 ug/ml after 48 hrs by agar well diffusion method; details: read-out: DIZ
Fusarium verticillioides [28] = test: Antifungal activity against Fusarium moniliforme at 100 ug/ml after 48 hrs by agar well diffusion method; details: read-out: DIZ
Fusarium oxysporum [29] = test: Antifungal activity against Fusarium oxysporum at 25 ug/ml after 48 hrs by agar well diffusion method; details: read-out: DIZ
Fusarium oxysporum [30] = test: Antifungal activity against Fusarium oxysporum at 50 ug/ml after 48 hrs by agar well diffusion method; details: read-out: DIZ
Fusarium oxysporum [31] = test: Antifungal activity against Fusarium oxysporum at 75 ug/ml after 48 hrs by agar well diffusion method; details: read-out: DIZ
Fusarium oxysporum [32] = test: Antifungal activity against Fusarium oxysporum at 100 ug/ml after 48 hrs by agar well diffusion method; details: read-out: DIZ
Klebsiella pneumoniae [33] = test: Antibacterial activity against Klebsiella pneumoniae incubated for overnight by microdilution method
Staphylococcus aureus [34] = test: Antibacterial activity against Staphylococcus aureus incubated for overnight by microdilution method
Bacillus subtilis [35] = test: Antibacterial activity against Bacillus subtilis incubated for overnight by microdilution method
Escherichia coli [36] = test: Antibacterial activity against Escherichia coli incubated for overnight by microdilution method
Aspergillus niger [37] = test: Antifungal activity against Aspergillus niger after 48 to 72 hrs by microdilution method
Fusarium verticillioides [38] = test: Antifungal activity against Fusarium moniliforme after 48 to 72 hrs by microdilution method
Fusarium oxysporum [39] = test: Antifungal activity against Fusarium oxysporum after 48 to 72 hrs by microdilution method
Staphylococcus aureus [40] = test: Antibacterial activity against methicillin resistant Staphylococcus aureus MRSA090 incubated for overnight by microdilution method

SMILES	zone of inhibition at 25 µg/mL (Staphylococcus aureus [1])	zone of inhibition at 50 µg/mL (Staphylococcus aureus [2])	zone of inhibition at 75 µg/mL (Staphylococcus aureus [3])	zone of inhibition at 100 µg/mL (Staphylococcus aureus [4])	zone of inhibition at 25 µg/mL (Bacillus subtilis [5])	zone of inhibition at 50 µg/mL (Bacillus subtilis [6])	zone of inhibition at 75 µg/mL (Bacillus subtilis [7])	zone of inhibition at 100 µg/mL (Bacillus subtilis [8])	zone of inhibition at 25 µg/mL (Escherichia coli [9])	zone of inhibition at 50 µg/mL (Escherichia coli [10])	zone of inhibition at 75 µg/mL (Escherichia coli [11])	zone of inhibition at 100 µg/mL (Escherichia coli [12])	zone of inhibition at 25 µg/mL (Klebsiella pneumoniae [13])	zone of inhibition at 50 µg/mL (Klebsiella pneumoniae [14])	zone of inhibition at 75 µg/mL (Klebsiella pneumoniae [15])	zone of inhibition at 100 µg/mL (Klebsiella pneumoniae [16])	zone of inhibition at 25 µg/mL (Staphylococcus aureus [17])	zone of inhibition at 50 µg/mL (Staphylococcus aureus [18])	zone of inhibition at 75 µg/mL (Staphylococcus aureus [19])	zone of inhibition at 100 µg/mL (Staphylococcus aureus [20])	further results
Cc1cccc2nc(N/N=C/c3ccc(Br)cc3Br)sc12	11 mm	15 mm	18 mm	21 mm	13 mm	17 mm	24 mm	27 mm	5 mm	8 mm	12 mm	16 mm	8 mm	11 mm	15 mm	20 mm	8 mm	12 mm	15 mm	17 mm	zone of inhibition at 25 µg/mL (Aspergillus niger [21]): 24 mm; zone of inhibition at 50 µg/mL (Aspergillus niger [22]): 29 mm; zone of inhibition at 75 µg/mL (Aspergillus niger [23]): 36 mm; zone of inhibition at 100 µg/mL (Aspergillus niger [24]): 40 mm; zone of inhibition at 25 µg/mL (Fusarium verticillioides [25]): 21 mm; zone of inhibition at 50 µg/mL (Fusarium verticillioides [26]): 27 mm; zone of inhibition at 75 µg/mL (Fusarium verticillioides [27]): 32 mm; zone of inhibition at 100 µg/mL (Fusarium verticillioides [28]): 41 mm; zone of inhibition at 25 µg/mL (Fusarium oxysporum [29]): 16 mm; zone of inhibition at 50 µg/mL (Fusarium oxysporum [30]): 24 mm; zone of inhibition at 75 µg/mL (Fusarium oxysporum [31]): 30 mm; zone of inhibition at 100 µg/mL (Fusarium oxysporum [32]): 38 mm; MIC (Klebsiella pneumoniae [33]): 20 mg/L (≈ 47 µM); MIC (Staphylococcus aureus [34]): 28 mg/L (≈ 65.9 µM); MIC (Bacillus subtilis [35]): 28 mg/L (≈ 65.9 µM); MIC (Escherichia coli [36]): 24 mg/L (≈ 56.5 µM); MIC (Aspergillus niger [37]): 20 mg/L (≈ 47 µM); MIC (Fusarium verticillioides [38]): 18 mg/L (≈ 42.3 µM); MIC (Fusarium oxysporum [39]): 16 mg/L (≈ 37.6 µM)
Cc1cccc2nc(N/N=C/c3cccs3)sc12	12 mm	18 mm	24 mm	28 mm	10 mm	15 mm	21 mm	24 mm	10 mm	14 mm	18 mm	22 mm	7 mm	11 mm	18 mm	21 mm	13 mm	16 mm	22 mm	28 mm	zone of inhibition at 25 µg/mL (Aspergillus niger [21]): 11 mm; zone of inhibition at 50 µg/mL (Aspergillus niger [22]): 15 mm; zone of inhibition at 75 µg/mL (Aspergillus niger [23]): 21 mm; zone of inhibition at 100 µg/mL (Aspergillus niger [24]): 26 mm; zone of inhibition at 25 µg/mL (Fusarium verticillioides [25]): 7 mm; zone of inhibition at 50 µg/mL (Fusarium verticillioides [26]): 9 mm; zone of inhibition at 75 µg/mL (Fusarium verticillioides [27]): 12 mm; zone of inhibition at 100 µg/mL (Fusarium verticillioides [28]): 15 mm; zone of inhibition at 25 µg/mL (Fusarium oxysporum [29]): 21 mm; zone of inhibition at 50 µg/mL (Fusarium oxysporum [30]): 24 mm; zone of inhibition at 75 µg/mL (Fusarium oxysporum [31]): 29 mm; zone of inhibition at 100 µg/mL (Fusarium oxysporum [32]): 30 mm; MIC (Klebsiella pneumoniae [33]): 26 mg/L (≈ 95.1 µM); MIC (Staphylococcus aureus [34]): 32 mg/L (≈ 117 µM); MIC (Bacillus subtilis [35]): 26 mg/L (≈ 95.1 µM); MIC (Escherichia coli [36]): 35 mg/L (≈ 128 µM); MIC (Staphylococcus aureus [40]): 20 mg/L (≈ 73.2 µM); MIC (Aspergillus niger [37]): 30 mg/L (≈ 110 µM); MIC (Fusarium verticillioides [38]): 28 mg/L (≈ 102 µM); MIC (Fusarium oxysporum [39]): 23 mg/L (≈ 84.1 µM)
